According to patent US20240067632A1, “WEE1 Degrading Compounds and Uses Thereof” (Bristol-Myers Squibb Company, priority 2022, published 2024):
pEC50: −log10 of the molar value. Where two headings read alike, the source gives them in different places.

Tests used:
WEE1 = target: T1, WEE1 (Homo sapiens, UniProt P30291+Q96SW2); test: WEE1-ePL degradation assay (LentiX-WEE1-ePL-GSPT1-ND cells, InCELL Hunter luminescence, 4 h); type: cell-based; conditions: 293T-LentiX WEE1-ePL cells; for DC50: read-out: 293T-LentiX WEE1-ePL Degradation 4 hr (EC50)
T1 construct: C-terminal ePL-tagged (DiscoverX, Fremont, CA) full-length WEE1 expression construct; expressed in transfected cells; host or cells: LentiX-HEK293T (Invitrogen), lentiviral transduction; co-expressing GSPT1-GN (G576N, lacking the first 158 amino acids)
Procedure, shortened: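 First, compounds were pre-plated as 10-point, 3-fold dilutions (top 1 uM or 10 uM) with DMSO control; next, WEE1-ePL-expressing HEK293T cells were added and held 4 h at 37 °C; finally, InCELL Hunter reagent was applied for 30 min before luminescence reading. A 4PL fit gave EC50 and Ymin.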

MKN45 cells = test: MKN45 cell proliferation assay (Cell-Titer-Glo, 120 h); type: cell-based; conditions: for pEC50: Homo sapiens, MKN-45, 120 h, Cell-Titer-Glo, read-out: MKN45 Cell Prolif. 120 hr (EC50); for MKN45 Cell Prolif. 120 hr (Ymin-Obs): minimal percent of DMSO control observed in the concentrations tested
Procedure, shortened: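 Growth inhibition was read as blank-corrected Cell-Titer-Glo luminescence expressed as percent DMSO control after 120 h at 37 C, 400 cells/well. Compounds tested in triplicate as 10-point half-log series from 1 or 10 uM, 0.1% DMSO; four-parameter fit gave EC50, and lowest observed percent control was reported as Ymin-obs.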

[1] = lower limit of the fit (0 = luciferase inhibitor, Ymax = DMSO control)
[2] = lower limit of the fit (Ymin=0 luciferase inhibitor, Ymax DMSO control)

SMILES	293T-LentiX WEE1-ePL Degradation 4 hr (Ymin) (WEE1; [1])	DC50 (WEE1) [nM]	pEC50 (MKN45 cells; growth inhibition)	293T-LentiX WEE1-ePL Degradation 4 hr (Ymin) (WEE1; [2])	pEC50 (MKN45 cells)	MKN45 Cell Prolif. 120 hr (Ymin-Obs) (MKN45 cells)
O=C1CCC(N2Cc3cc(O[C@H]4CCN(Cc5ccc6nc([C@H]7CC[C@H](O)C7)ccc6c5)C4)ccc3C2=O)C(=O)N1 (stereo partly drawn) [3-(5-{[(3S)-1-({2-[(1S,3S)-3-hydroxycyclopentyl]quinolin-6-yl}methyl)pyrrolidin-3-yl]oxy}-1-oxo-2,3-dihydro-1H-isoindol-2-yl)piperidine-2,6-dione]	27.5	2.67	8.49	–	–	8.695
CN(C)C(=O)c1ccc2cc(CN3CC[C@H](Oc4ccc5c(c4)CN(C4CCC(=O)NC4=O)C5=O)C3)ccc2n1 (stereo partly drawn) [6-{[(3S)-3-{[2-(2,6-dioxopiperidin-3-yl)-1-oxo-2,3-dihydro-1H-isoindol-5-yl]oxy}pyrrolidin-1-yl]methyl}-N,N-dimethylquinoline-2-carboxamide]	29.42	9.05	7.76	–	–	8.56
CO[C@H]1CCC[C@@H]1c1ccc2cc(CN3CC[C@H](Oc4ccc5c(c4)CN(C4CCC(=O)NC4=O)C5=O)C3)ccc2n1 (stereo partly drawn) [3-(5-{[(3S)-1-({2-[(1R,2S)-2-methoxycyclopentyl]quinolin-6-yl}methyl)pyrrolidin-3-yl]oxy}-1-oxo-2,3-dihydro-1H-isoindol-2-yl)piperidine-2,6-dione]	–	4.34	–	30.79	8.26	8.858
Cc1cnc2ccc(CN3CC[C@H](Oc4ccc5c(c4)CN(C4CCC(=O)NC4=O)C5=O)C3)c(C)c2c1 (stereo partly drawn) [3-(5-{[(3S)-1-[(3,5-dimethylquinolin-6-yl)methyl]pyrrolidin-3-yl]oxy}-1-oxo-2,3-dihydro-1H-isoindol-2-yl)piperidine-2,6-dione]	39.05	7.92	7.03	–	–	53.11
COC[C@@H]1CC[C@@H](c2ccc3cc(CN4CC[C@H](Oc5ccc6c(c5)CN(C5CCC(=O)NC5=O)C6=O)C4)ccc3n2)C1 (stereo partly drawn) [3-(5-{[(3S)-1-({2-[(1R,3R)-3-(methoxymethyl)cyclopentyl]quinolin-6-yl}methyl)pyrrolidin-3-yl]oxy}-1-oxo-2,3-dihydro-1H-isoindol-2-yl)piperidine-2,6-dione]	–	3.01	–	34.2	8.52	8.79
CC(C)(O)c1ccc2cc(CN3CC[C@H](Oc4ccc5c(c4)CN(C4CCC(=O)NC4=O)C5=O)C3)ccc2n1 (stereo partly drawn) [3-(5-{[(3S)-1-{[2-(2-hydroxypropan-2-yl)quinolin-6-yl]methyl}pyrrolidin-3-yl]oxy}-1-oxo-2,3-dihydro-1H-isoindol-2-yl)piperidine-2,6-dione]	32.75	4.09	7.85	–	–	11.2475
O=C1CC[C@H](N2Cc3cc(O[C@@H]4CN(Cc5ccc6nc([C@H]7CCOC7)ccc6c5)CC4(F)F)ccc3C2=O)C(=O)N1 [(3S)-3-(5-{[(3R)-4,4-difluoro-1-({2-[(3R)-oxolan-3-yl]quinolin-6-yl}methyl)pyrrolidin-3-yl]oxy}-1-oxo-2,3-dihydro-1H-isoindol-2-yl)piperidine-2,6-dione]	–	11.7	–	28.37	8.12	8.319
CC(=O)N1CCC(c2ncc3cc(CN4CC[C@H](Oc5ccc6c(c5)CN([C@H]5CCC(=O)NC5=O)C6=O)C4)ccc3n2)CC1 [(3S)-3-(5-{[(3S)-1-{[2-(1-acetylpiperidin-4-yl)quinazolin-6-yl]methyl}pyrrolidin-3-yl]oxy}-1-oxo-2,3-dihydro-1H-isoindol-2-yl)piperidine-2,6-dione]	–	35.8	–	36.09	7.86	9.035
O=C1CCC(N2Cc3cc(O[C@H]4CCN(Cc5cncc(C(F)(F)F)c5)C4)ccc3C2=O)C(=O)N1 (stereo partly drawn) [3-(1-oxo-5-{[(3S)-1-{[5-(trifluoromethyl)pyridin-3-yl]methyl}pyrrolidin-3-yl]oxy}-2,3-dihydro-1H-isoindol-2-yl)piperidine-2,6-dione]	33.76	36.9	6.07	–	–	54.82
COc1cc(C)nc2ccc(CN3CC[C@H](Oc4ccc5c(c4)CN(C4CCC(=O)NC4=O)C5=O)C3)cc12 (stereo partly drawn) [3-(5-{[(3S)-1-[(4-methoxy-2-methylquinolin-6-yl)methyl]pyrrolidin-3-yl]oxy}-1-oxo-2,3-dihydro-1H-isoindol-2-yl)piperidine-2,6-dione]	44.38	26.8	5.82	–	–	47.92
CN1CC[C@H](c2ncc3cc(CN4CC[C@H](Oc5ccc6c(c5)CN(C5CCC(=O)NC5=O)C6=O)C4)ccc3n2)C1 (stereo partly drawn) [3-(5-{[(3S)-1-({2-[(3S)-1-methylpyrrolidin-3-yl]quinazolin-6-yl}methyl)pyrrolidin-3-yl]oxy}-1-oxo-2,3-dihydro-1H-isoindol-2-yl)piperidine-2,6-dione]	–	248	–	36.52	7.08	17.35

These reach a lower DC50 (WEE1). Values come first.

293T-LentiX WEE1-ePL Degradation 4 hr (Ymin) (WEE1; [1])	DC50 (WEE1) [nM]	pEC50 (MKN45 cells; growth inhibition)	293T-LentiX WEE1-ePL Degradation 4 hr (Ymin) (WEE1; [2])	pEC50 (MKN45 cells)	SMILES	MKN45 Cell Prolif. 120 hr (Ymin-Obs) (MKN45 cells)
29	2.56	8.67	–	–	CC1(C)CC(c2ccc3cc(CN4CC[C@H](Oc5ccc6c(c5)CN(C5CCC(=O)NC5=O)C6=O)C4)ccc3n2)CCO1 (stereo partly drawn) [3-(5-{[(3S)-1-{[2-(2,2-dimethyloxan-4-yl)quinolin-6-yl]methyl}pyrrolidin-3-yl]oxy}-1-oxo-2,3-dihydro-1H-isoindol-2-yl)piperidine-2,6-dione]	7.959
32	2.43	8.54	–	–	O=C1CCC(N2Cc3cc(O[C@H]4CCN(Cc5ccc6nc(N7CCOCC7=O)ccc6c5)C4)ccc3C2=O)C(=O)N1 (stereo partly drawn) [3-(1-oxo-5-{[(3S)-1-{[2-(3-oxomorpholin-4-yl)quinolin-6-yl]methyl}pyrrolidin-3-yl]oxy}-2,3-dihydro-1H-isoindol-2-yl)piperidine-2,6-dione]	6.88
29.5	2.58	8.62	–	–	O=C1CCC(N2Cc3cc(O[C@H]4CCN(Cc5ccc6nc(C7(O)CCC7)ccc6c5)C4)ccc3C2=O)C(=O)N1 (stereo partly drawn) [3-(5-{[(3S)-1-{[2-(1-hydroxycyclobutyl)quinolin-6-yl]methyl}pyrrolidin-3-yl]oxy}-1-oxo-2,3-dihydro-1H-isoindol-2-yl)piperidine-2,6-dione]	7.94
28	1.99	8.47	–	–	O=C1CCC(N2Cc3cc(O[C@H]4CCN(Cc5cc6cc([C@H]7CCOC7)ccc6cn5)C4)ccc3C2=O)C(=O)N1 (stereo partly drawn) [3-(1-oxo-5-{[(3S)-1-({6-[(3R)-oxolan-3-yl]isoquinolin-3-yl}methyl)pyrrolidin-3-yl]oxy}-2,3-dihydro-1H-isoindol-2-yl)piperidine-2,6-dione]	6.69
29	1.78	8.69	–	–	O=C1CCC(N2Cc3cc(O[C@H]4CCN(Cc5ccc6nc(NC(=O)C7CCOCC7)ccc6c5)C4)ccc3C2=O)C(=O)N1 (stereo partly drawn) [N-(6-{[(3S)-3-{[2-(2,6-dioxopiperidin-3-yl)-1-oxo-2,3-dihydro-1H-isoindol-5-yl]oxy}pyrrolidin-1-yl]methyl}quinolin-2-yl)oxane-4-carboxamide]	5.73
24.37	1.94	9.04	–	–	C[C@@H]1CN(Cc2ccc3nc([C@H]4CCOC(C)(C)C4)ccc3c2)C[C@H]1Oc1ccc2c(c1)CN(C1CCC(=O)NC1=O)C2=O (stereo partly drawn) [3-(5-{[(3S,4R)-1-({2-[(4S)-2,2-dimethyloxan-4-yl]quinolin-6-yl}methyl)-4-methylpyrrolidin-3-yl]oxy}-1-oxo-2,3-dihydro-1H-isoindol-2-yl)piperidine-2,6-dione]	8.183
40	1.51	8.55	–	–	O=C1CC[C@H](N2Cc3cc(O[C@H]4CCN(Cc5ccc6nc(N7CCCC7=O)ccc6c5)C4)ccc3C2=O)C(=O)N1 [(3S)-3-(1-oxo-5-{[(3S)-1-{[2-(2-oxopyrrolidin-1-yl)quinolin-6-yl]methyl}pyrrolidin-3-yl]oxy}-2,3-dihydro-1H-isoindol-2-yl)piperidine-2,6-dione]	8.56
–	1.41	–	26.17	8.95	C[C@@H]1CN(Cc2cc(F)c3nc([C@@H]4CCOC4)ccc3c2)C[C@H]1Oc1ccc2c(c1)CN([C@H]1CCC(=O)NC1=O)C2=O [(3S)-3-(5-{[(3S,4R)-1-({8-fluoro-2-[(3S)-oxolan-3-yl]quinolin-6-yl}methyl)-4-methylpyrrolidin-3-yl]oxy}-1-oxo-2,3-dihydro-1H-isoindol-2-yl)piperidine-2,6-dione]	7.979
